This note sets out measurements from PubChem BioAssay AID2305 (GlaxoSmithKline (GSK), 2010).

The test system of this test is P. falciparum 3D7 growth, pLDH absorbance. Nature of the test: P. falciparum 3D7 growth inhibition, dose response, strain 3D7 (AID 2305).

Broadly, the IC50 is the midpoint of a concentration-inhibition curve. The low end stands for higher potency, the high end for lower potency.

Values joined by “and” are separate entries in the source; they are usually repeats but may differ in a detail not shown here. Identical values can stand only once.

Consider `N#Cc1ccc(N(CCNS(=O)(=O)c2cc(Br)c(Cl)s2)Cc2ccccc2C(F)(F)F)cc1C(F)(F)F`, for which the 50% inhibitory concentration (IC50) turned out to be 860 nM.
The value for `CC(=O)Nc1nc(C(=O)Nc2cccc(-c3ccc(-c4nc5c(C)cccc5[nH]4)cc3)c2)cs1` was 230 nM.
The value for `Cc1c(Cn2ncc(N3C[C@@H](C)N[C@@H](C)C3)c(Cl)c2=O)cccc1NC(=O)Nc1ccc(-c2ccccc2)cc1` was 600 nM; that for `CCc1cn2c3c(cc(C(=O)N[C@@H](Cc4ccccc4)[C@H](O)CNCCOC)cc13)N(C)S(=O)(=O)CC2` was 950 nM.
The figure for `COc1ccc(NC(=O)NC2CCN(c3ccnc4cc(Cl)ccc34)C2)cc1` (stereo unspecified) is 100 nM; for `CCc1ccc(C(=O)NC(=O)c2ccccc2O)cc1` it is 610 nM.
Compound `Cc1nc2nc(N)nc(N)c2c(C)c1Cc1ccc(C#N)cc1` returned an IC50 of 540 nM.
The figure for `COc1ccc(Cl)cc1NC(=O)Nc1ccc2c(c1)CCN(C1CCC1)CC2` is 810 nM; for `CC(C)(C)c1ccc(CNC(=O)c2cc(CNC3CCNC3)ccc2O)cc1` (stereo unspecified) it is 800 nM; for `COc1ccc(OCC(O)CN(Cc2ccccc2OC)C(=O)Nc2ccc(Br)cc2)cc1` (stereo unspecified) it is 750 nM.
For `O=C(NOCCOc1ccccc1)c1ccccc1`, the IC50 was found to be 320 nM. This IC50 is about 2.3-fold lower than that of the compound before.
The figure for `Cc1nc2nc(N)nc(N)c2c(C)c1Cc1cccc(C(N)=O)c1` is 1080 nM; for `Cc1[nH]c2ccccc2c1C(=O)CSc1nn(-c2ccccc2)c(=S)s1` it is 700 nM.
The figure for `COc1ccc(Cl)cc1N1CCN(CCCNC(=O)c2ccc(-c3nc4ccc(C(F)(F)F)cc4[nH]3)c(C)c2)CC1` is 760 nM.
The value for `COc1ccc(CNC2CCN(C)CC2)cc1-c1ccc(S(=O)(=O)NCc2cccnc2)s1` was 840 nM.
Take `O=S(=O)(NCCN1CCCC1)c1ccc(-c2cccc(CNCCc3cccs3)c2)s1`: the IC50 turned out to be 700 nM. This IC50 and that of the compound before are within 1.5-fold of each other.
The value for `Cc1noc(-c2ccc(O)cc2O)c1-c1ccc2c(c1)OCCCO2` was 890 nM; that for `COc1ccc2ncc(F)c([C@@H](O)CN3CCC(NCc4cc5c(cn4)OCCO5)CC3)c2c1` was 140 nM; that for `CN1CCN(CC(=O)Nc2ccc(-c3ccc(-c4nc5ccccc5[nH]4)cc3)cc2)CC1` was 700 nM.
The figure for `O=C(Cn1c(CCc2cccc(F)c2F)nc(=O)c2ccccc21)N(CCN1CCCC1)Cc1ccc(-c2ccc(C(F)(F)F)cc2)cc1` is 710 nM; for `O=C(/C=C/C=C/c1ccccc1)NC1CCC(CN2CCC(c3c[nH]c4ccccc34)CC2)CC1` (stereo unspecified) it is 870 nM.
In turn, `COc1ccc2nccc(N3CCC(CCNCc4ccc5c(n4)NC(=O)CO5)CC3)c2n1` showed a concentration for half-maximal inhibition (IC50) of 1000 nM.
The value for `CC(=O)c1cccc(NC(=O)NC2CCN(CCCCCNC(=O)/C=C/c3ccc(Cl)c(Cl)c3)CC2)c1` was 840 nM.
Consider `Cc1ccc(NS(=O)(=O)c2ccc(C(C)N3CCC(N4CCCCC4)CC3)cc2)cc1C` (stereo unspecified), for which the IC50 was 760 nM.
The figure for `Cc1cccc2[nH]c(-c3ccc(-c4cccc(CNCc5cccc(N)c5)c4)s3)nc12` is 520 nM; for `CC(C)(CNCCOc1ccc(Cl)cc1)c1nc(-c2ccc(Cl)c(O)c2)c(-c2ccnc(N)n2)[nH]1` it is 830 nM.
For `CN(C)CCOc1ccnc2ccc(NC(=O)Cc3ccc(-c4ccncc4)c4ccccc34)cc12`, the IC50 stood at 280 nM.
The figure for `CCN(CC)CCN(Cc1ccc(-c2ccc(C(F)(F)F)cc2)cc1)C(=O)Cn1c(CCc2cccc(F)c2F)nc(=O)c2cc(F)ccc21` is 830 nM.
The figure for `Cc1cccc2[nH]c(-c3cccc(-c4cccc(NC(=O)c5csnn5)c4)c3)nc12` is 300 nM.
The figure for `COCc1ccc(CN2CCC(C(=O)Nc3ccc(-c4nc5ccccc5[nH]4)cc3)CC2)o1` is 850 nM; for `CN(C(=O)Nc1ccc(F)cc1)C1CCN(CCCCCNC(=O)/C=C/c2ccc(Cl)c(Cl)c2)CC1` it is 890 nM; for `CCCNCc1ccc(-c2ccc(CN(CCOC)C(=O)CCCOCc3ccccc3)cc2)nc1` it is 1160 nM.
In the case of `O=C(Nc1ccc(Cn2ncc(N3CCCNCC3)c(Cl)c2=O)cc1)Nc1ccc(C(F)(F)F)cc1`, the concentration for half-maximal inhibition (IC50) amounted to 730 nM.
The value for `CCCCOc1ccc(-n2c(Nc3ccccc3)nc3cc(S(N)(=O)=O)ccc32)cc1` was 890 nM; that for `O=C(/C=C/c1ccc(Cl)c(Cl)c1)NC1CCC(CN2CC[C@H](c3c[nH]c4ccccc34)[C@@H](O)C2)CC1` (stereo partly specified) was 720 nM; that for `CN1C(=CC(=O)NC(=O)c2ccccc2)C(C)(C)c2ccccc21` was 640 nM.
The figure for `CCN(CCO)CCCC(C)Nc1ccnc2cc(Cl)ccc12` (stereo unspecified) is 760 nM; for `c1cc(C2=N[C@H]3CCCC[C@@H]3N2)ccc1OCCCCCOc1ccc(C2=N[C@@H]3CCCC[C@H]3N2)cc1` it is 230 nM; for `Cc1ccc(Nc2nc(NN=Cc3ccccc3[N+](=O)[O-])nc(Nc3ccc([N+](=O)[O-])cc3)n2)cc1C` it is 690 nM.
On to `Cc1nc(-c2cccc(C(F)(F)F)c2)n2nc(Nc3ccc(OCCN4CCCC4)cc3)ncc12`, for which the concentration for half-maximal inhibition (IC50) was found to be 750 nM.
Compound `CC(C)n1ncc2c(C(=O)N3CCCc4ccccc43)cc(-c3ccccc3)nc21` registered an IC50 of 600 nM.
The value for `CC(=O)Nc1cccc(-c2cn(-c3ccc(OCc4cccc(F)c4)c(Cl)c3)c3ncncc23)c1` was 70 nM; that for `CN(C)CCNC(=O)c1ccc2c(c1)n(C1CCN(S(=O)(=O)c3ccc(-c4ccccc4)cc3)CC1)c(=O)n2CC1CCCCC1` was 620 nM.
Compound `CC(C)(C)c1nn(-c2ccccc2)c2[nH]c(=O)c(CNC3CCCCC3)cc12` gave an IC50 of 1250 nM.
The value for `NC(N)=NN=Cc1ccc2c(ccc3ccccc32)c1` was 630 nM; that for `Cc1ccc(O)cc1Nc1ccnc2ccc(-c3cccc(CN(C)C)c3)cc12` was 510 nM.
The figure for `O=C(Nc1cc(C(F)(F)F)cc(C(F)(F)F)c1)NC1CCC(CN2CCC(c3c[nH]c4ccccc34)CC2)CC1` (stereo unspecified) is 810 nM and 460 nM; for `CN(C)CCNCc1cccc(-c2ccc3c(Nc4ccc(Oc5ccccc5)cc4)ccnc3c2)c1` it is 440 nM; for `O=C(Nc1ccccc1)N(Cc1cccc(-c2cccc(CNCCc3ccccc3)c2)c1)C1CCN(Cc2ccccc2)CC1` it is 310 nM.
The value for `CCCCCc1cc(OCCN(C)C)cc2c1C(=O)CC(C)(C)O2` was 100 nM; that for `COc1cccc2sc(N3CCN(C(=O)c4ccc([N+](=O)[O-])o4)CC3)nc12` was 870 nM; that for `COc1ccc(NC(C)C(=O)Nc2ccc(Br)cc2)cc1S(=O)(=O)N1CCCCC1` (stereo unspecified) was 220 nM.
`CCNc1cc(C(=O)N[C@@H](Cc2ccccc2)[C@H](O)CN[C@H](C)C(C)(C)C)cc(N2CCCCS2(=O)=O)c1` gave an IC50 of 820 nM. This IC50 is about 3.7-fold higher than that of the compound before.
The value for `COC(=O)c1ccc(OCC(C)NCC(O)c2cccc(C(F)(F)F)c2)cc1` (stereo unspecified) was 840 nM; that for `Clc1ccccc1CNc1noc(-c2sccc2Br)n1` was 790 nM; that for `CC(C)OC(=O)c1ccccc1S(N)(=O)=O` was 670 nM.
The value for `Cc1ccc(Nc2nc(NN=Cc3cccc(O)c3)nc(Nc3ccc([N+](=O)[O-])cc3)n2)cc1C` was 740 nM; that for `CC1=C(C(=O)Nc2cc3cn[nH]c3cc2F)C(c2cccc(O)c2F)CC(=O)N1` (stereo unspecified) was 630 nM.
Turning to `COc1ccc(Cn2c(N3CCN(S(=O)(=O)c4ccc(OC)cc4)CC3)nc3c2c(=O)n(CC2CC2)c(=O)n3CC2CC2)cc1`, the IC50 turned out to be 890 nM.
The compound `CC1(C)CCCN(C(=O)c2cccc(-n3nc(-c4ccc(Cl)cc4)cc3N)c2)C1` gave an IC50 of 710 nM. The IC50 values of the last two compounds are within 1.5-fold of each other.
The figure for `NC(=S)Cc1ccc2c(c1)OCO2` is 280 nM; for `CCOC(=O)c1cn(CC)c2cc(O[C@@H]3CCN(C(=O)OC(C)(C)C)C3)ccc2c1=O` it is 290 nM.
The figure for `O=C(NC(Nc1ccc([N+](=O)[O-])cc1)C(Cl)(Cl)Cl)c1ccc(Cl)cc1` (stereo unspecified) is 780 nM; for `CCCc1cc(O)c2c3c(c(=O)oc2c1)CN(C)CC3` it is 870 nM.
The value for `CS(=O)(=O)NCCCNCc1ccc(-c2ccc(-c3nc4ccc(F)cc4[nH]3)cc2)cc1` was 930 nM; that for `CCc1cccc(NC(=O)c2ccc(CN3CCCN(CC4CCCCC4)CC3)cc2)c1` was 400 nM.
`CCc1ccc(N2C(N)=NC(N)=NC2(C)C)cc1`: the IC50 worked out at 10 nM.
The figure for `CCCCCN1CCN(Cc2cccc(NC(=O)c3ccc(Cl)c(Cl)c3)c2)CC1` is 860 nM; for `Oc1ccccc1CN1CCN(C(c2ccccc2)c2ccccc2)CC1` it is 760 nM; for `CNC(=O)NC1=NC(C)(C)N(OCCCOc2cc(Cl)c(Cl)cc2Cl)C(N)=N1` it is 930 nM.
The value for `CCCCCCCN1CC[C@H](NC(=O)Nc2ccnc3ccc(OC)cc23)[C@H](CO)C1` was 180 nM.
The figure for `O=C(/C=C/c1ccc(Cl)c(Cl)c1)N1CCC(CN2CCC(c3c(Br)[nH]c4ccccc34)CC2)CC1` is 290 nM; for `CC1(C)N=C(N)N=C(N)N1OCc1nc(N)nc(Nc2ccccc2)n1` it is 270 nM; for `CC(C)n1cc(CN2CCCC(C(=O)Nc3cccc(-c4cc5ccccc5[nH]4)c3)C2)cn1` (stereo unspecified) it is 1000 nM.
`O=C(NCC1CC1)C1Cc2c([nH]c3ccc(Br)cc23)C2(CCN(CCc3ccccc3)CC2)N1` (stereo unspecified): the IC50 is 910 nM.
The figure for `N[C@@H](COc1cccc2c(-c3ccncc3)c(-c3cccc(NC(=O)Nc4ccccc4)c3)nn12)c1ccccc1` is 410 nM; for `O=C(Nc1cccc(-c2cccc(-c3nc4ccc(C(F)(F)F)cc4[nH]3)c2)c1)c1cccnc1` it is 400 nM; for `CC(C)n1ncc2c(C(=O)N3CCCCCC3)cc(-c3ccccc3)nc21` it is 790 nM.
Turning to `Cc1cccc2[nH]c(-c3ccc(-c4ccc(CN5CCN(CC6CCCN(C)C6)CC5)cc4)cc3)nc12` (stereo unspecified), the IC50 is 140 nM.
The value for `O=C(NCc1ccc(F)cc1)c1cnc(N2CCN(c3ccncc3)CC2)c(Cl)c1` was 1390 nM; that for `O=S(=O)(Nc1cccc(CCN2CCC(N3CCCCC3)CC2)c1)c1ccc(Oc2ccccc2)cc1` was 770 nM.
The figure for `Nc1nccc2ccc(-c3ccsc3)cc12` is 330 nM; for `COc1cc(Nc2ncc3c(C)nc(-c4cccc(Nc5ccc(CN6CCS(=O)(=O)CC6)cc5)c4)n3n2)cc(OC)c1OC` it is 870 nM.
The figure for `COc1ccc2cc(C(=O)Nc3ccc4c(c3)CCN(C3CCC3)CC4)ccc2c1` is 840 nM; for `CN1CCN(CCCNCc2ccc(Nc3nccc(Nc4ccc(Oc5ccccc5)cc4)n3)cc2)CC1` it is 630 nM; for `Cc1cc(OCCCN2CCC(NS(=O)(=O)c3ccc(C(F)(F)F)cc3)CC2)c2ccccc2n1` it is 1220 nM.
